Measured values taken from patent publication US20050282159A1, “Rpob gene of streptomyces, primer specific to streptomyces, and identification method of streptomyces having rifampin resistance or sensitivity by using the same” (priority 2001, published 2005).

Key:
Experiment in all cases: rifampin-sensitive test on Bennet solid media
Type in all cases: cell-based
Parameters in all cases: key: “(+)” indicates a genotype with rifampin-resistance; “(−)” indicates a genotype with rifampin-susceptibility
S. abikoensis KCTC 9662 = conditions: TCG (TCC) genotype, 25 ug/ml rifampin, 72 hr
Experimental: (§1) The 47 strains were respectively cultured at 28° C. for 72 hr in Bennet liquid media. The culture solution was then inoculated on Bennet solid media (yeast extract 1 g/L, Beef extract 1 g/L, Tryptone 2 g/L, Glycerol 10 g/L, Agar 15 g/L) containing 25 ug/ml rifampin, and after incubation for 72 hr, rifampin-resistance was tested.

[1] = system: S. alanosinicus KCTC 9683; conditions: AAC genotype, 25 ug/ml rifampin, 72 hr
Experimental: as §1

[2] = system: S. albireticuli KCTC 9685; conditions: TCG (TCC) genotype, 25 ug/ml rifampin, 72 hr
Experimental: as §1

S. albofaciens KCTC 9747 = conditions: TCG (TCC) genotype, 25 ug/ml rifampin, 72 hr
Experimental: as §1

[3] = system: S. albogriseolus KCTC 9773; conditions: AAC genotype, 25 ug/ml rifampin, 72 hr
Experimental: as §1

S. albulus KCTC 9668 = conditions: TCG (TCC) genotype, 25 ug/ml rifampin, 72 hr
Experimental: as §1

S. albus KCTC 1082 = conditions: AAC genotype, 25 ug/ml rifampin, 72 hr
Experimental: as §1

S. almquistii KCTC 9751 = conditions: TCG (TCC) genotype, 25 ug/ml rifampin, 72 hr
Experimental: as §1

S. armeniacus KCTC 9120 = conditions: AAC genotype, 25 ug/ml rifampin, 72 hr
Experimental: as §1

S. avidinii KCTC 9757 = conditions: AAC genotype, 25 ug/ml rifampin, 72 hr
Experimental: as §1

S. bacillaris KCTC 9018 = conditions: TCG (TCC) genotype, 25 ug/ml rifampin, 72 hr
Experimental: as §1

[4] = system: S. bambergiensis KCTC 9019; conditions: TCG (TCC) genotype, 25 ug/ml rifampin, 72 hr
Experimental: as §1

S. bikiniensis KCTC 9172 = conditions: TCG (TCC) genotype, 25 ug/ml rifampin, 72 hr
Experimental: as §1

[5] = system: S. cacoi asoensis KCTC 9700; conditions: TCG (TCC) genotype, 25 ug/ml rifampin, 72 hr
Experimental: as §1

S. carpinensis KCTC 9128 = conditions: TCG (TCC) genotype, 25 ug/ml rifampin, 72 hr
Experimental: as §1

S. catenulae KCTC 9223 = conditions: TCG (TCC) genotype, 25 ug/ml rifampin, 72 hr
Experimental: as §1

[6] = system: S. celluloflavus KCTC 9702; conditions: TCG (TCC) genotype, 25 ug/ml rifampin, 72 hr
Experimental: as §1

[7] = system: S. cinnamonensis KCTC 9708; conditions: TCG (TCC) genotype, 25 ug/ml rifampin, 72 hr
Experimental: as §1

S. coelicolor KCTC 9005 = conditions: AAC genotype, 25 ug/ml rifampin, 72 hr
Experimental: as §1

[8] = system: S. cuspidosporus KCTC 9718; conditions: AAC genotype, 25 ug/ml rifampin, 72 hr
Experimental: as §1

S. durhamensis KCTC 9723 = conditions: AAC genotype, 25 ug/ml rifampin, 72 hr
Experimental: as §1

S. echinoruber KCTC 9725 = conditions: AAC genotype, 25 ug/ml rifampin, 72 hr
Experimental: as §1

S. flaveolus KCTC 9022 = conditions: AAC genotype, 25 ug/ml rifampin, 72 hr
Experimental: as §1

[9] = system: S. griseus griseus KCTC 9080; conditions: AAC genotype, 25 ug/ml rifampin, 72 hr
Experimental: as §1

S. plicatus KCTC 9040 = conditions: AAC genotype, 25 ug/ml rifampin, 72 hr
Experimental: as §1

[10] = system: S. sclerotialus KCTC 9065; conditions: AAC genotype, 25 ug/ml rifampin, 72 hr
Experimental: as §1

S. spectabilis KCTC 9218 = conditions: AAC genotype, 25 ug/ml rifampin, 72 hr
Experimental: as §1

CO[C@H]1/C=C/O[C@@]2(C)Oc3c(C)c(O)c4c(O)c(c(/C=N/N5CCN(C)CC5)c(O)c4c3C2=O)NC(=O)/C(C)=C\C=C\[C@H](C)[C@H](O)[C@@H](C)[C@@H](O)[C@@H](C)[C@H](OC(C)=O)[C@@H]1C [rifampin]
genotype (rifampin-resistance or susceptibility) (S. abikoensis KCTC 9662): −
genotype (rifampin-resistance or susceptibility) [1]: +
genotype (rifampin-resistance or susceptibility) [2]: −
genotype (rifampin-resistance or susceptibility) (S. albofaciens KCTC 9747): −
genotype (rifampin-resistance or susceptibility) [3]: +
genotype (rifampin-resistance or susceptibility) (S. albulus KCTC 9668): −
genotype (rifampin-resistance or susceptibility) (S. albus KCTC 1082): +
genotype (rifampin-resistance or susceptibility) (S. almquistii KCTC 9751): −
genotype (rifampin-resistance or susceptibility) (S. armeniacus KCTC 9120): +
genotype (rifampin-resistance or susceptibility) (S. avidinii KCTC 9757): +
genotype (rifampin-resistance or susceptibility) (S. bacillaris KCTC 9018): −
genotype (rifampin-resistance or susceptibility) [4]: −
genotype (rifampin-resistance or susceptibility) (S. bikiniensis KCTC 9172): −
genotype (rifampin-resistance or susceptibility) [5]: −
genotype (rifampin-resistance or susceptibility) (S. carpinensis KCTC 9128): −
genotype (rifampin-resistance or susceptibility) (S. catenulae KCTC 9223): −
genotype (rifampin-resistance or susceptibility) [6]: −
genotype (rifampin-resistance or susceptibility) [7]: −
genotype (rifampin-resistance or susceptibility) (S. coelicolor KCTC 9005): +
genotype (rifampin-resistance or susceptibility) [8]: +
genotype (rifampin-resistance or susceptibility) (S. durhamensis KCTC 9723): +
genotype (rifampin-resistance or susceptibility) (S. echinoruber KCTC 9725): +
genotype (rifampin-resistance or susceptibility) (S. flaveolus KCTC 9022): +
genotype (rifampin-resistance or susceptibility) [9]: +
genotype (rifampin-resistance or susceptibility) (S. plicatus KCTC 9040): +
genotype (rifampin-resistance or susceptibility) [10]: +
genotype (rifampin-resistance or susceptibility) (S. spectabilis KCTC 9218): +
